In ChEMBL document CHEMBL1201862, “PubChem BioAssay data set” (2004):
One block for each compound: values may come before it. Calls of active or inactive are those of the source.

Key:
cells = details: HEK293
[1] = toxicity to HepG2 liver cells – cell-based, plate reader, dry powder, set 6, cytotoxicity control, dose response (AID 743311); format: functional
[2] = toxicity to A549 lung cells – cell-based, plate reader, dry powder, set 6, cytotoxicity control, dose response (AID 743312); format: functional
[3] = HIV-1 Vif–A3G interaction blockers – biochemical, TR-FRET, GST-Vif 1-94, biotin-A3G peptide, dose response retest, primary screen (AID 1117319); format: functional;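 further: TR-FRET signal of purified GST-Vif binding a biotinylated A3G peptide; inhibitors lower the FRET signal by blocking Vif and A3G binding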
Escherichia coli = test: microbe, parasite or virus in culture
Paired box protein Pax-8 = Paired box protein Pax-8 (Homo sapiens, UniProt Q06710); test: PAX8 transcriptional activity inhibition in RMG-I – RMG-I cells, luciferase, cherry-pick, dose response (AID 687027); format: functional, cell-based;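 further: luciferase reporter driven by Pax8 target thyroperoxidase promoter measured by SteadyGlo luminescence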
Chain of Paired box protein Pax-8 (Q06710 whole entry): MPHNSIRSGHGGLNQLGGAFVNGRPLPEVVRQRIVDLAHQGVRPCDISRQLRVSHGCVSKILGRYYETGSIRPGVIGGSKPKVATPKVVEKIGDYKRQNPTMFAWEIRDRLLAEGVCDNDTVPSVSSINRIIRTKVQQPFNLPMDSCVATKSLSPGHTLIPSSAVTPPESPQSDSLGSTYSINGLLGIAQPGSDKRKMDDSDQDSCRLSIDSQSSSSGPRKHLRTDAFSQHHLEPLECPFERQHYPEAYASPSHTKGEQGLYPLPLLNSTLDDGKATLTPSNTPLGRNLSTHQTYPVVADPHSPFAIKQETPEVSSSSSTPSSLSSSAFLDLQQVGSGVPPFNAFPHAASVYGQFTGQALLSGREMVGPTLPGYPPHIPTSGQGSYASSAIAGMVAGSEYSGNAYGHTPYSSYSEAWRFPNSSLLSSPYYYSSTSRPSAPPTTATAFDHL

[4] = OVCAR-3 cell viability loss – plate reader, dry powder samples, PAX8 inhibitor project, dose response (AID 743044); format: functional, cell-based
[5] = IGROV1 cell killing – plate reader, dry powder samples, PAX8 inhibitor project, dose response (AID 743043); format: functional, cell-based; details: IGROV-1
[6] = Dd2 parasite growth inhibition in erythrocytes – SYBR Green, dry powder samples, set 9, dose response (AID 1159568); format: functional, cell-based
[7] = CellTiter-Glo luminescence survival assay, SW480 colon tumor line, concentration-response curve, half-maximal inhibitory concentration (AID 1117338); format: functional
[8] = rise of 4N DNA cells, HeLa – IC50, dose response (AID 1117351); format: functional, cell-based
[9] = rise of 2N DNA cells, HeLa – IC50, dose response (AID 1117349); format: functional, cell-based
[10] = IC50 of insulin release inhibition, rat insulinoma INS-1E line, 5 mM glucose, cell-based (AID 1117331); format: functional
[11] = SNU-C1 cell viability reduction, dose response, CellTiter-Glo luminescence (AID 1117323); format: functional, cell-based
[12] = HCT116 cell viability decrease, GSK3B pretreatment – CellTiter-Glo, IC50, dose response (AID 1117339); format: functional; details: HCT-116
[13] = cytotoxicity toward HT-29 cells – cell-based, CellTiter-Glo luminescence, IC50, dose response (AID 1117330); format: functional
[14] = Reduced DLD-1 viability, concentration-response, CellTiter-Glo luminescence (AID 1117352); format: functional
[15] = RKO cell viability reduction, dose response, CellTiter-Glo luminescence (AID 1117322); format: functional
[16] = cytotoxicity toward Colo320 cells – cell-based, CellTiter-Glo luminescence, IC50, dose response (AID 1117334); format: functional; details: COLO 320
Estrogen receptor beta [17] = biological target: T1, Estrogen receptor beta (Homo sapiens, UniProt Q92731);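 further: recombinant ER-beta bound to coactivator SRC1 peptide in presence of estradiol agonist; inhibitors block coactivator peptide binding and lower the FRET signal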
T1 sequence (Q92731 whole entry): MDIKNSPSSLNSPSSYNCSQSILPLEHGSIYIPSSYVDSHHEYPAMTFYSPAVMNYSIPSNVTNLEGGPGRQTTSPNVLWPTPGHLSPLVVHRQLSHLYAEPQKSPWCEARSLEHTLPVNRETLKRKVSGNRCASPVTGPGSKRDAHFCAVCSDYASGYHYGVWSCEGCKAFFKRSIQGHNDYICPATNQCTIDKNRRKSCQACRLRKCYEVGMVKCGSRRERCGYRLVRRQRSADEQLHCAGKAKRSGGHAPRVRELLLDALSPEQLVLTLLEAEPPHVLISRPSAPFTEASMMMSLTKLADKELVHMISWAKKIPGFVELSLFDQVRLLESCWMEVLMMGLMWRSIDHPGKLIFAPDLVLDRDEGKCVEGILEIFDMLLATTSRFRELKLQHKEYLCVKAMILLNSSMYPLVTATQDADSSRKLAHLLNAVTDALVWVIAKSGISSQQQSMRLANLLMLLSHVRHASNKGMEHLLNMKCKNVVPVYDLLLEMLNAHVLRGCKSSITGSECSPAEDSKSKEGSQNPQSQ

[18] = biological target: Sphingosine 1-phosphate receptor 4 (Homo sapiens, UniProt O95977); test: Fluorescence dose response cell-based high throughput screening assay for agonists of the Sphingosine 1-Phosphate Receptor 4 (S1P4). [Related pubchem assays: 1509 (Primary screen.), 1523 (Confirmation screen in triplicates.)]; format: functional
Chain of Sphingosine 1-phosphate receptor 4 (O95977 whole entry): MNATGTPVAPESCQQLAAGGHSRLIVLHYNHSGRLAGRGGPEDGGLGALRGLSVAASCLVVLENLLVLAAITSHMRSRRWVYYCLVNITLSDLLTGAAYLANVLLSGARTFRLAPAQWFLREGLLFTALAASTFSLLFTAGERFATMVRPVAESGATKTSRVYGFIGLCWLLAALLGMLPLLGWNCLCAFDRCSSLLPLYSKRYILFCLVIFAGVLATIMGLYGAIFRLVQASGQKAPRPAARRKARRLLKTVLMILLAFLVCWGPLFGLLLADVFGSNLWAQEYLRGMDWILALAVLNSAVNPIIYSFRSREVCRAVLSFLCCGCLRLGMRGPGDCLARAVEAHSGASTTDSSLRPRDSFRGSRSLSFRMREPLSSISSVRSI

[19] = biological target: Sphingosine 1-phosphate receptor 1 (Homo sapiens, UniProt P21453); test: Fluorescence-based counterscreen assay for S1P4 agonists: Cell-based dose response high throughput screening assay to identify agonists of the Sphingosine 1-Phosphate Receptor 1 (S1P1). [Related pubchem assays (depositor defined):AID1509, AID1523, AID1801, AID463107, AID463118, AID463119, AID463122, AID463123, AID463129, AID463225, AID504400, AID504460]; format: functional
Chain of Sphingosine 1-phosphate receptor 1 (P21453 whole entry): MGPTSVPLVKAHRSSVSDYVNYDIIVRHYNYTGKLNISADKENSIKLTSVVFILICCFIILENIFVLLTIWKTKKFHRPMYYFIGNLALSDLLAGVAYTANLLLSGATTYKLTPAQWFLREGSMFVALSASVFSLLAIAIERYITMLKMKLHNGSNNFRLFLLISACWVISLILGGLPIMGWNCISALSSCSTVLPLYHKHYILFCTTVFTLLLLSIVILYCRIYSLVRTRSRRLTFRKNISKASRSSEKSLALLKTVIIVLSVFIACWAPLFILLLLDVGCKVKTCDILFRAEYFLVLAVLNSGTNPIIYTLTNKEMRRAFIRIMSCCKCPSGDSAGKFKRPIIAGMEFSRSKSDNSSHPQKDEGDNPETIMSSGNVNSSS

Estrogen receptor beta [20] = biological target: T1, Estrogen receptor beta; test: blockers of SRC-3 recruitment to ERβ – biochemical, ELISA, streptavidin-HRP readout, orthogonal assay, confirmation (AID 1060)
[21] = biological target: Sphingosine 1-phosphate receptor 2 (Homo sapiens, UniProt O95136); test: Dose Response Cell Based Assay for Agonists of the S1P2 Receptor. [Related pubchem assays: 729, 736, 843 ]; format: functional
Chain of Sphingosine 1-phosphate receptor 2 (O95136 whole entry): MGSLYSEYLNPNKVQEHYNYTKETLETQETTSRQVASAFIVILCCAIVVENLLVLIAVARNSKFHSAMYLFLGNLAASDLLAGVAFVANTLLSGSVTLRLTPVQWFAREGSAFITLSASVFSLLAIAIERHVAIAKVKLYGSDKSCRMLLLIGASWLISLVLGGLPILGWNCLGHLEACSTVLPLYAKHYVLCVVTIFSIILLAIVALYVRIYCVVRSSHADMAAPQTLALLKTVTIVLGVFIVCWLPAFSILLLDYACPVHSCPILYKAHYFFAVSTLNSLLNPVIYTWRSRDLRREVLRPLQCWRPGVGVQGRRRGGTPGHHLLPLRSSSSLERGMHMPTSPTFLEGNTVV

Estrogen receptor = biological target: T2, Estrogen receptor (Homo sapiens, UniProt P03372);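 further: potency for inhibiting coactivator peptide recruitment to the receptor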
T2 sequence (P03372 whole entry): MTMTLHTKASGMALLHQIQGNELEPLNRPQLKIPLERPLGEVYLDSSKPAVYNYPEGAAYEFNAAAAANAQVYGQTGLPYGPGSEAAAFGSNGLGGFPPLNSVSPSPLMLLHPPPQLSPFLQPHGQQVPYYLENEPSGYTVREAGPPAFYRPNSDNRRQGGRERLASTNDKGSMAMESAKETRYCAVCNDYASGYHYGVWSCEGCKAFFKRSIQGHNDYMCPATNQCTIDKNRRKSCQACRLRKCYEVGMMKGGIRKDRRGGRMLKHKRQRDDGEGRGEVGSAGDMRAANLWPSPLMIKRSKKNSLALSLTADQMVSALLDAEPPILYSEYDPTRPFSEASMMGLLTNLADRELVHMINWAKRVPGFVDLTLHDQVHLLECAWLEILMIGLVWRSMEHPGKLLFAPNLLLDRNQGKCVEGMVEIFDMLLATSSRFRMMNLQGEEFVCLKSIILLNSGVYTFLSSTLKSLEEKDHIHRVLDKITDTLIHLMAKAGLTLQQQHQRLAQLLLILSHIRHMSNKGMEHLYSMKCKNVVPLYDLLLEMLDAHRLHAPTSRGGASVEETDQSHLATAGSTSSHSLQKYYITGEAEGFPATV

[22] = biological target: Mitogen-activated protein kinase 10 (Homo sapiens, UniProt P53779); test: Dose response biochemical screening assay for inhibitors of c-Jun N-Terminal Kinase 3 (JNK3). [Related pubchem assays: 746 ]
Chain of Mitogen-activated protein kinase 10 (P53779 whole entry): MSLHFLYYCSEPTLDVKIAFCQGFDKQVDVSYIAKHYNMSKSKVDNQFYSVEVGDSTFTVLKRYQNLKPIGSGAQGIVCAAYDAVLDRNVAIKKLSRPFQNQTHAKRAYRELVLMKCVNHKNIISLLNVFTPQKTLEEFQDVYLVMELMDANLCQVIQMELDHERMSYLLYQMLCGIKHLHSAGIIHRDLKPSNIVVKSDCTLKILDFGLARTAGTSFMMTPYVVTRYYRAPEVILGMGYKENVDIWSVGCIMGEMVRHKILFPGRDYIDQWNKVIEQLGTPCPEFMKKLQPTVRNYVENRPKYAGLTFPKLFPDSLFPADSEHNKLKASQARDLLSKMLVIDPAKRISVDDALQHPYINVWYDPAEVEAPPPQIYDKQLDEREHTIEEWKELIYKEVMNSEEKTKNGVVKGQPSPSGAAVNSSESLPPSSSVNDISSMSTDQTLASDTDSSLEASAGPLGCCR

SMILES: Cc1ccc(C(C)C)c(OCCn2c(CO)nc3ccccc32)c1
AC50 (cells): 32.2 µM (active)
AC50 [1]: 37.4 µM (active)
AC50 [2]: 38.5 µM (active)

SMILES: COc1ccc(S(=O)(=O)NCCSCc2ccco2)cc1Cl
IC50 [3]: > 100 µM (active)
AC50 (Escherichia coli): 43.2 µM (active)

SMILES: O=C(Nc1ccccc1F)N1CCCCN2[C@@H](CO)[C@@H](c3ccc(/C=C/c4ccccc4)cc3)[C@@H]2C1
AC50 (Paired box protein Pax-8): 7.96 µM (active)
AC50 [4]: 10.6 µM (active)
AC50 [5]: 29.1 µM (active)
AC50 [6]: 2.52 µM (active)

SMILES: CC(=O)Oc1ccc(C2(c3ccc(OC(C)=O)cc3)Oc3ccccc3NC2=O)cc1 [BISOXATIN ACETATE]
IC50 [7]: 9.19 µM (inactive)
IC50 [8]: > 10 µM (inactive)
IC50 [9]: > 10 µM (inactive)
IC50 [10]: > 33.3 µM (inactive)
IC50 [11]: > 20 µM (inactive)
IC50 [12]: 3.26 µM (active)
IC50 [13]: > 20 µM (inactive)
IC50 [14]: 19.7 µM (inactive)
IC50 [15]: 9.23 µM (inactive)
IC50 [16]: > 20 µM (inactive)

IC50 (Estrogen receptor beta [17]): 21.1 µM (active)
EC50 [18]: 6.15 µM (active)
EC50 [19]: 24.6 µM (inactive)
IC50 (Estrogen receptor beta [20]): < 23 nM (not active)
EC50 [21]: 64.4 µM (not active)
IC50 (Estrogen receptor): 44.7 µM (not active)
SMILES: C=CCn1c(=O)c(C#N)cc2c(=O)n3ccccc3nc21

IC50 [22]: > 31 µM (not active)
SMILES: COc1cc(C(=O)Nc2nccs2)ccc1OCc1c(C)noc1C
